Patent US5750566A, “Synthetic excitatory amino acids” (Eli Lilly and Company, priority 1995, dated 1998)
Structures can show the parent of a compound that is named as a salt.

Legend:
[1] = tested on: metabotropic glutamate receptors; experiment: Displacement of (1S,3R)-ACPD-sensitive [3H]glutamate binding to rat brain cell membranes (receptor binding); details: crude membranes of rat forebrain; compounds 3 and 8 tested as mixture of enantiomers, 6 and 7 as pure enantiomers; read-out: IC50 (concentration that inhibited 50% [3H]glutamate binding)
Method: The binding of [^3 H]glutamate ([^3 H]Glu) was conducted with crude membranes of rat forebrain as described by Schoepp and True. Schoepp and True, Neuroscience Lett., 145, 100-104 (1992); Wright, McDonald, and Schoepp, J. Neurochem., 63, 938-945 (1994). The concentration of the formula I compound that inhibited 50% binding (IC50), or the percent displacement of [^3 H]Glu at a 10 μM or 100 μM concentration of the formula I compound, is shown in Table I.

[2] = target: cAMP-linked metabotropic glutamate receptors (rat hippocampus); experiment: Inhibition of forskolin-stimulated cAMP formation in rat hippocampus; format: biochemical
Method: (§1) The formula I compounds are effective in affecting the cAMP-linked metabotropic glutamate receptors. Representative compounds were tested for their ability to decrease forskolin-stimulated cAMP formation in the rat hippocampus and the rat cerebral cortex, using the procedures described in Schoepp and Johnson. Schoepp and Johnson, Neurochem. Int., 22, 277-283 (1993).

mice [3] = experiment: Automated elevated plus maze model of anxiety; format: in vivo, mouse (male NIH Swiss); details: five-minute test
Method: The elevated plus maze model is based upon the natural aversion of rodents to height and open spaces.
(§2) Male Long Evans rats (180-400 g) or male NIH Swiss mice (18-35 g) were obtained from Harlan Sprague-Dawley, Cumberland, Ind., USA and acclimated at least 3 days before testing. Animals were housed at 23±2° C.(relative humidity 30% to 70%) and given Purina Certified Rodent Chow and water ad libitum. The photoperiod was 12 hours of light and 12 hours of dark, with dark onset at approximately 1800 hours.
(§3) Test compounds were dissolved in a vehicle of purified water and neutralized with 5N NaOH to a pH of 7-8 when applicable. […] Control animals received the respective vehicle.
Automated Elevated Plus Maze
Construction of the elevated plus-maze was based on a design validated for mice by Lister (1987). The entire maze was made of clear Plexiglas. The maze was comprised of two open arms (30×5×0.25 cm) and two enclosed arms (30×5×15 cm). The floor of each maze arm was corrugated to provide texture. The arms extended from a central platform and angled at 90 degrees from each other. The maze was elevated to a height of 45 cm above the floor and illuminated by red light. Individual infrared photocells were mounted along each arm of the maze to monitor closed, open, or nosepoke activity. Mice were individually placed on the central platform of the maze and the number of closed arm, open arm, and nosepoke (poking head only into open arm from closed arm of maze) counts were recorded and used as a measure of arm entries and time spent on various sections of the maze over a five-minute test period.

Long Evans rats [4] = experiment: Auditory startle after nicotine withdrawal; format: in vivo, rat (Long Evans)
Method: This cessation of drug dosing elicits an increased startle response to auditory stimuli.
Long Evans rats (200-400 g; Harlan Sprague Dawley, Columbus, Ind.) were individually housed in a controlled environment on a 12 hour light-dark cycle and given free access to food (Purina Rodent Chow) and water. Rats were anesthetized with isoflurane and Alzet osmotic pumps (Alza Corporation) were implanted subcutaneously.
Test compound was dissolved in a vehicle of purified water and neutralized with 5N NaOH to a PH of 7-8 when applicable. […] Nicotine (Research Biochemicals Inc., Natick, Mass.) was dissolved in saline. Control animals received the respective vehicle.
Twelve days following subcutaneous implantation of pumps, rats were anesthetized with isoflurane and the pumps were removed. During withdrawal (following pump removal), the auditory startle response (peak amplitude, Vmax) of individual rats was recorded using San Diego Instruments startle chambers (San Diego, Calif.). Startle sessions consisted of a 5-minute adaptation period at a background noise level of 70±2 dBA immediately followed by 25 presentations of auditory stimuli (120±2 dBA noise, 50 ms duration) presented at 8-second intervals. Peak startle amplitudes were then averaged for all 25 presentations of stimuli for each session and all data are presented here as overall session means. Auditory startle responding was evaluated daily on withdrawal days 1,2,3,4 or 5. Baseline startle responding was evaluated prior to pump removal on day 12.

Long Evans rats [5] = experiment: Auditory startle after diazepam withdrawal; format: in vivo, rat (Long Evans)
[6] = target: cAMP-linked metabotropic glutamate receptors (rat cerebral cortex); experiment: Inhibition of forskolin-stimulated cAMP formation in rat cerebral cortex; format: biochemical
Method: as §1

Long Evans rats [7] = experiment: Fear potentiated startle model of anxiety; format: in vivo, rat (male Long Evans)
Text: In the fear potentiated startle model, animals are exposed to a neutral stimulus such as light (conditioned stimulus) with an aversive stimulus such as a shock (unconditioned stimulus). Following conditioning, when the animals are presented with a loud acoustic stimulus, larger startle responses are elicited when the startle stimulus is preceded by light.
as §2, §3
SL-LAB (San Diego Instruments, San Diego, Calif.) chambers were used for conditioning sessions and for the production and recording of startle responses. A classical conditioning procedure was used to produce potentiation of startle responses. Briefly, on the first 2 days, rats were placed into dark startle chambers in which shock grids were installed. […]

[8] = tested on: cAMP-linked metabotropic glutamate receptors; details: literature; cited from earlier work
[9] = tested on: PI-linked metabotropic glutamate receptors; details: literature; for L-CCG-I at higher concentrations; cited from earlier work
Long Evans rats [10] = details: statement about clinically proven anxiolytics; cited from earlier work
mice [11] = details: statement about clinically proven anxiolytics; cited from earlier work

`N[C@@]1(C(=O)O)CC[C@H]2[C@H](C(=O)O)[C@H]21` (racemic) [Compound 3, (1SR,2SR,5RS,6SR) 2-Aminobicyclo[3.1.0]hexane-2,6-dicarboxylic Acid] gave an IC50 [1] of 320 nM.

`N[C@@]1(C(=O)O)CC[C@H]2[C@@H](C(=O)O)[C@H]21` (racemic) [Compound 8, (1SR,2SR,5RS,6RS) 2-Aminobicyclo[3.1.0]hexane-2,6-dicarboxylic Acid] gave an IC50 [1] of 3200 nM.

With `NC1(C(=O)O)CCC2C(C(=O)O)C21` (single isomer, unassigned; (+)) [Compound 6, (+)-2-Aminobicyclo[3.1.0]hexane-2,6-dicarboxylic Acid] the EC50 [2] was 36 ± 15 nM, the nosepoke counts (mice [3]; oral, 3 mg/kg) was “significant increase” and the open arm activity (mice [3]; oral, 1, 3 and 10 mg/kg) was “significant increases”. The “closed arm activity counts” value (mice [3]; oral, any dose) was “not significantly altered”, the IC50 [1] was 180 nM and the “attenuation of heightened startle” value (Long Evans rats [4]; 3 mg/kg, p.o., compared to nicotine controls) was “significant attenuation”. The ED50 (Long Evans rats [4]; Rattus norvegicus, ip, compared to nicotine controls, route printed i.p., read-out: ED50, attenuation of nicotine withdrawal-induced heightened startle) was 0.7 mg/kg, the “withdrawal-induced increase in startle responding after pretreatment” value (Long Evans rats [4]; pretreatment, nicotine withdrawal) was “dose-dependent blockade” and the “attenuation of enhanced startle” value (Long Evans rats [5]; 0.1 and 0.3 mg/kg, p.o., compared to control responding) was “significantly attenuated enhanced startle”. The ED50 (Long Evans rats [5]; Rattus norvegicus, po, read-out: ED50, attenuation of diazepam withdrawal-enhanced startle, p.o., compared to control responding) was 0.1 mg/kg, the “expected increase in startle responding following cessation of diazepam, after pretreatment” value (Long Evans rats [5]; pretreatment, diazepam withdrawal) was “blocked the expected increase in startle responding” and the EC50 [6] was 55 ± 17 nM.

In the case of `NC1(C(=O)O)CCC2C(C(=O)O)C21` (single isomer, unassigned; (-)) [Compound 7, (-)-2-Aminobicyclo[3.1.0]hexane-2,6-dicarboxylic Acid], the EC50 [2] is reported as 29400 ± 3040 nM, the “ED50, fear potentiated startle” value (Long Evans rats [7]; p.o., Inactive = at highest dose tested, 10 mg/kg p.o.) is reported as “Inactive” and the IC50 [1] is reported as 161000 nM. For the same molecule, the EC50 [6] was 22000 ± 3400 nM.

In the case of `N[C@@]1(C(=O)O)CC[C@@H](C(=O)O)C1` [1S,3R-ACPD, (1S,3R)-1-Aminocyclo-pentane-1,3-dicarboxylic acid], the “agonist activity at cAMP-linked metabotropic glutamate receptors” value [8] is listed as “agonist of PI-linked and cAMP-linked metabotropic glutamate receptors” and the “activity at PI-linked metabotropic glutamate receptors” value [9] is listed as “agonist of PI-linked and cAMP-linked metabotropic glutamate receptors”.

For `CN1C(=O)CN=C(c2ccccc2)c2cc(Cl)ccc21` [Diazepam, reference compound], the ED50 (Long Evans rats [7]; Rattus norvegicus, po, read-out: ED50, fear potentiated startle) is listed as 0.4 mg/kg, the “reduction of fear (increased startle response) associated with presentation of light” value (Long Evans rats [10]) is listed as “effective at reducing the fear (increased startle response)” and the “reduction of fear of open spaces in elevated plus maze” value (mice [11]) is listed as “reducing the fear of open spaces”. For the same molecule, the “increased reactivity following diazepam cessation with diazepam replacement” value (Long Evans rats [5]; 30 mg/kg, i.p. daily 60 minutes before evaluation, days 1 through 4, vs diazepam control) was “did not show increased reactivity”, the “increased startle responding with diazepam replacement” value (Long Evans rats [5]; replacement 3 and 10 mg/kg, i.p.) was “did not block the increased startle responding” and the “increased reactivity with diazepam replacement” value (Long Evans rats [5]; replacement 3 and 10 mg/kg, i.p., in some instances) was “further increased reactivity”.

In the case of `N[C@H](C(=O)O)[C@H]1C[C@@H]1C(=O)O` [L-CCG-I, (2S,3S,4S)-2-(carboxycyclopropyl)glycine], the “agonist activity at cAMP-linked metabotropic glutamate receptors” value [8] is given as “selective cAMP-linked metabotropic glutamate receptor agonist” and the “activity at PI-linked metabotropic glutamate receptors” value [9] is given as “activity at PI-linked metabotropic receptors”.

For `O=C1CC2(CCCC2)CC(=O)N1CCCCN1CCN(c2ncccn2)CC1` [buspirone hydrochloride], the “reduction of fear (increased startle response) associated with presentation of light” value (Long Evans rats [10]) is given as “effective at reducing the fear (increased startle response)” and the “reduction of fear of open spaces in elevated plus maze” value (mice [11]) is given as “reducing the fear of open spaces”.

In the case of `CN1CCC[C@H]1c1cccnc1` [nicotine, reference compound], the “heightened startle response with nicotine replacement dose” value (Long Evans rats [4]; 0.03 mg/kg, i.p., or higher) is reported as “did not display the same heightened startle response” and the “auditory startle responding following cessation of chronic nicotine exposure” value (Long Evans rats [4]; first three days after cessation, vs control rats receiving water, nicotine 6 mg/kg/day s.c.) is reported as “significantly increased”.
